pIC50: −log10 of the molar value. Values joined by “and” are separate entries in the source; they are usually repeats but may differ in a detail not shown here. Equal values may be shown once. Read-outs that look alike come from different tables or passages of the source.

One test concerns the target A/H3N2 neuraminidase. It is filed as biochemical, influenza A/H3N2 virus.
Test [1] relates to A/H1N1pdm09 neuraminidase. Type of test: biochemical, influenza A/H1N1pdm09 virus.
Test [2] concerns influenza B neuraminidase. It is filed as biochemical, influenza B virus.
Where [3] appears, read: read-out: IC50 (nM), second column without sub-head (median IC50 value).

In the case of `CC(=O)N[C@H]1[C@H]([C@H](O)[C@H](O)CO)OC(C(=O)O)=C[C@@H]1N=C(N)N` [Zanamivir, zanamivir hydrate], the half-inhibitory concentration (IC50) on A/H3N2 neuraminidase (setting [3]) amounted to 2.2 nM. Besides, the negative logarithm of the IC50 (pIC50) on A/H3N2 neuraminidase (read-out: median IC50 value) is 8.80; on A/H3N2 neuraminidase (read-out: median IC50 values), 8.62.
Turning to `CCC(CC)[C@H](NC(C)=O)[C@@H]1[C@H](O)[C@@H](C(=O)O)C[C@H]1N=C(N)N` [Peramivir, peramivir hydrate], the IC50 at A/H3N2 neuraminidase (read-out: IC50 (nM), median IC50 value (unheaded second column)) is 1 nM; at A/H3N2 neuraminidase (setting [3]) it was 0.8 nM; on A/H3N2 neuraminidase (read-out: IC50 (nM), second unheaded column: median IC50 value) it was 0.7 nM; on A/H3N2 neuraminidase (read-out: median IC50 value (unheaded second column under IC50 (nM))), 0.7 nM. Further, the pIC50 is 9.15 on A/H3N2 neuraminidase (read-out: median IC50 value); 9.52 and 9.30 and 9.40 in test [1] (read-out: median IC50 values); 8.60 and 8.68 in test [2] (read-out: median IC50 values). In addition, the “reduced susceptibility class (RI/HRI, WHO criteria)” value in test [1] is listed as “RI (key: For A viruses, reduced inhibition (RI) was defined as a 10‐fold to 100‐fold increase in IC50 values; highly reduced inhibition (HRI) was defined as more than 100‐fold increase in IC50 values)”. Further, the “Fold change (IC50 / median IC50)” value in test [2] is 0.9 and 0.762 and 1.0 and 0.857 and 0.667 and 1.2 and 1.1 and 0.952. In addition, the “Fold change (ratio of IC50 to the median IC50 value)” value in test [2] is 0.8 and 1.1 and 0.7 and 0.76 and 1.0 and 1.3 and 1.2 and 0.9.
Turning to `CCOC(=O)C1=C[C@@H](OC(CC)CC)[C@H](NC(C)=O)[C@@H](N)C1` [Oseltamivir, oseltamivir phosphate], the pIC50 on A/H3N2 neuraminidase (read-out: median IC50 values) was 8.96.

What is called IC50 is the concentration that inhibits the measured activity by half. A word on the pIC50: it is the IC50 on a negative log10 scale, so that one unit is a factor of ten.
